Experimental data as given in US20100322887A1, “HAIR NOURISHING COSMETIC” (SHOWA DENKO K.K., priority 2008, published 2010).

Legend:
[1] = Solubility in water; conditions: normal temperature
[2] = system: male C3H/HeN Sic mice; experiment: Hair regrowth promotion test using mouse; format: in vivo; conditions: after 20 days
Protocol: 15 male C3H/HeN Sic 7-week old mice in the resting stage of the hair cycle had their hair at the back part shorn off carefully with an electric hair clipper and an electric shaver. These mice were divided into three groups each containing 5 mice. To the skin of the shorn part of each mouse in one group, 0.1 ml of a test sample shown in the following Table 4 was applied once a day, and to the skin of the shorn part of each mouse in another group, a base was applied in the same amount. The residual group in which nothing had been applied was regarded as an untreated control.
After 20 days from the beginning of the experiments, the back part of each mouse was photographed. By the use of an image analyzing software (Image-J), a ratio of the area where the hair had regrown to the whole area of the hair shorn part was calculated, and the resulting ratio was regarded as a hair regrowth ratio. The hair regrowth ratio of each mouse was calculated, and statistical analysis of the hair regrowth ratio of each group was carried out. The results are shown in FIG. 1 and the following Table 5.

Compound | solubility in water [1] | Hair regrowth ratio (%) Average ([2]; 0.1 ml once a day on shorn back skin, in Macrogol 400:Macrogol 4000 = 9:1 base, n=5) | hair regrowth ratio (in words) ([2]; test sample group)
COC1=C(OC)C(=O)C(C/C=C(\C)CC/C=C(\C)CC/C=C(\C)CC/C=C(\C)CC/C=C(\C)CC/C=C(\C)CC/C=C(\C)CC/C=C(\C)CC/C=C(\C)CCC=C(C)C)=C(C)C1=O [ubiquinone] | less than 100 ppm | – | –
tetrapotassium ubiquinol-1,4-diphosphate | – | 58.45% | tendency of enhancement
